# Assay results as given in paper PMC9428149, “Tackling recalcitrant Pseudomonas aeruginosa infections in critical illness via anti-virulence monotherapy” (Nature Communications, 2022).
# “And” between values parts separate entries of the source, which are not always exact repeats. Equal values may be shown once. Read-outs that look alike come from different tables or passages of the source.
# Columns and labels:
# [1] = test system: pyocyanin production in PA14; assay: Pyocyanin production assay; conditions: Pseudomonas aeruginosa; for activity at 50 µM: PA14, 18 h, read-out: % Production Pyocyanin; for IC50: PA14, read-out: IC50 pyocyanin production
# Method: The over-day culture was grown to OD600nm 1.5., diluted again at 1:10,000 in 5 mL LB and incubated with 10 μM of the test compound or the vehicle control for 18 hours at 37 °C and 200 rpm in an incubator shaker. After 18 h, 1 mL of culture was centrifuged for 2 min at 20.000 x g. The supernatant was transferred to a new tube, 200 μL of this were loaded in a flat-bottom 96-well plate, and the pyocyanin levels were quantified by measuring at OD690nm in the infinite F200 plate reader using the Magellan software (Tecan, Switzerland). […] The percent of pyocyanin was calculated compared to the PA14 culture grown in the absence of compounds.
# To determine the IC50 of pyocyanin production, we followed the same process as above. […] Using GraphPad Prism Software, the IC50 curve was plotted against percent inhibition of pyocyanin production at each concentration using PA14 in the absence of compounds as a control.
# PA14 AT/P cells = assay: AT/P cells formation assay in PA14; type: cell-based, Pseudomonas aeruginosa; conditions: for inhibition at 10 µM: Pseudomonas aeruginosa, PA14, 24 h, read-out: inhibition of AT/P cells formation
# [2] = test system: PA14 isogenic mutant ΔmvfR AT/P cells; assay: AT/P cell formation in ΔmvfR mutant (off-target); conditions: Pseudomonas aeruginosa, PA14, 24 h, read-out: AT/P cell formation, ΔmvfR + compound; PA14 about 100; single replicates (Figure 4b)
# [3] = test system: MvfR-regulated small molecules in PA14; assay: Production of HAQs, 2-AA, DHQ and AA in PA14 cultures (LC-MS); conditions: Pseudomonas aeruginosa
# [4] = test system: mvfR mutant constitutively expressing the pqsABCDE operon; type: cell-based; conditions: Pseudomonas aeruginosa, control about 100, single replicates (Figure 4a)
# ΔmvfR biofilm = assay: Biofilm formation of ΔmvfR mutant (off-target); conditions: Pseudomonas aeruginosa, PA14, 24 h, read-out: Biofilm formation, ΔmvfR + compound; PA14 about 100; single replicates (Figure 4c)
# [5] = test system: pqsA promoter (PA14 PpqsA-GFPASV); assay: pqsA-GFP reporter expression; type: cell-based, Pseudomonas aeruginosa; conditions: Pseudomonas aeruginosa; for activity at 50 µM: PA14, read-out: % Production pqsA-GFP; for IC50: PA14, read-out: IC50 pqsA-GFP expression, PA14, 13 concentrations
# [6] = Solubility in iPBS pH 7.4 by HPLC; type: physicochemical; conditions: isotonic phosphate buffer (iPBS), aqueous with cosolvent or surfactant or cyclodextrin, kinetic from dmso stock; iPBS pH 7.4, HPLC; read-out: Solubility (M) in PBS
# Method in brief: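 Compounds from 10 mM DMSO stock shaken 4 h at room temperature in iPBS pH 7.4 (10 mM PBS, 2.7 mM KCl, 140 mM NaCl, 0.05% Tween), then filtered. Concentration measured by HPLC-UV against a known standard solution; solubility given as ratio of compound in test solution to standard.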
# MvfR protein (MvfRC87) = target: T1, MvfR protein (MvfRC87) (Pseudomonas aeruginosa, UniProt Q9I4X0); type: binding; conditions: SPR
# T1 construct: The MvfRC87 protein purified as in Xiao et. al., 2006; made in house
# T1 sequence (Q9I4X0 87-332): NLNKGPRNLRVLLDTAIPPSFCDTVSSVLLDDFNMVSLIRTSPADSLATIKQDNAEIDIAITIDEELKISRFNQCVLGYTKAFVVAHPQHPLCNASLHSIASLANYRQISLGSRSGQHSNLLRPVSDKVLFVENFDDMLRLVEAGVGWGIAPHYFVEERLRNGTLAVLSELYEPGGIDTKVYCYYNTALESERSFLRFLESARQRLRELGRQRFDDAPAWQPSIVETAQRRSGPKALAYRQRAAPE
# Method in brief: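 MvfRC87 amine-coupled to a CM7 chip (3000–5000 RU) and binding measured by SPR. Double-reference-corrected responses 5 s before end of association plotted against concentration, for inhibitor alone and with native ligand PQS, compared with responses calculated for different binding sites.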
# [7] = test system: 16 MDR P. aeruginosa clinical isolates; assay: Pyocyanin production in MDR clinical isolates; conditions: Pseudomonas aeruginosa, 18 h, Control about 100, replicates
# Method: The over-day culture was grown to OD600nm 1.5., diluted again at 1:10,000 in 5 mL LB and incubated with 10 μM of the test compound or the vehicle control for 18 hours at 37 °C and 200 rpm in an incubator shaker. After 18 h, 1 mL of culture was centrifuged for 2 min at 20.000 x g. The supernatant was transferred to a new tube, 200 μL of this were loaded in a flat-bottom 96-well plate, and the pyocyanin levels were quantified by measuring at OD690nm in the infinite F200 plate reader using the Magellan software (Tecan, Switzerland). The same procedure was also followed for the pyocyanin production assessment for all the P. aeruginosa clinical isolates assessed in this study. The percent of pyocyanin was calculated compared to the PA14 culture grown in the absence of compounds.
# Pyocyanin production was measured in 16 P.
# aeruginosa clinical isolates 18hr post-growth in the presence or absence of 10 µM of each NAM
# compound. The percent of pyocyanin production was calculated by comparing the same strain grown
# in the presence of the vehicle control. b.
# [8] = PA14, read-out: % Production 2-AA
# [9] = PA14, read-out: % Production AA
# [10] = PA14, read-out: % Production DHQ
# [11] = PA14, read-out: % Production HHQ
# [12] = PA14, read-out: % Production HQNO
# [13] = PA14, read-out: % Production PQS
# [14] = PA14, read-out: HHQ production inhibition
# [15] = PA14, read-out: HQNO production inhibition
# [16] = PA14, read-out: PQS production inhibition
# [17] = PA14, read-out: inhibition of 2-AA production
# [18] = PA14, read-out: inhibition of DHQ production
# [19] = read-out: DHQ, ΔmvfR-pqsABCD strain
# [20] = read-out: PQS, ΔmvfR-pqsABCD strain
# [21] = read-out: Pyocyanin production relative to Control, clinical isolate LGR-4325
# [22] = read-out: Pyocyanin production relative to Control, clinical isolate LGR-4326
# [23] = read-out: Pyocyanin production relative to Control, clinical isolate LGR-4327
# [24] = read-out: Pyocyanin production relative to Control, clinical isolate LGR-4328
# [25] = read-out: Pyocyanin production relative to Control, clinical isolate LGR-4330
# [26] = read-out: Pyocyanin production relative to Control, clinical isolate LGR-4331 (first section, r117)
# [27] = read-out: Pyocyanin production relative to Control, clinical isolate LGR-4331 (second section, r140)
# [28] = read-out: Pyocyanin production relative to Control, clinical isolate LGR-4333
# [29] = read-out: Pyocyanin production relative to Control, clinical isolate LGR-4343
# [30] = read-out: Pyocyanin production relative to Control, clinical isolate LGR-4344
# [31] = read-out: Pyocyanin production relative to Control, clinical isolate LGR-4348
# [32] = read-out: Pyocyanin production relative to Control, clinical isolate LGR-4356
# [33] = read-out: Pyocyanin production relative to Control, clinical isolate LGR-4362
# [34] = read-out: Pyocyanin production relative to Control, clinical isolate LGR-4363
# [35] = read-out: Pyocyanin production relative to Control, clinical isolate LGR-4364 (first section, r326)
# [36] = read-out: Pyocyanin production relative to Control, clinical isolate LGR-4364 (second section, r349)
smiles,measurement,setting,value
N#Cc1ccc(NC(=O)CC(=O)Nc2ccc(C(F)(F)F)cc2)cc1 [D69],activity at 50 µM,[1],4%
same,IC50,[1],0.96 µM
same,"AT/P cells formation, percentage of control (single replicates)","PA14 AT/P cells; PA14, 10 μg mL^−1 meropenem, 10 µM compound, 24 h, control PA14 + vehicle",16.39% and 11.56%
same,inhibition at 10 µM,PA14 AT/P cells,≥ 76%
same,activity at 10 µM,[2],30.1%
same,activity at 50 µM,[3]; [8],15%
same,activity at 50 µM,[3]; [9],920%
same,activity at 50 µM,[3]; [10],13%
same,activity at 50 µM,[3]; [11],6%
same,activity at 50 µM,[3]; [12],40%
same,activity at 50 µM,[3]; [13],16%
same,inhibition at 50 µM,[3]; [14],89 to 99%
same,inhibition at 50 µM,[3]; [15],40 to 92%
same,inhibition at 50 µM,[3]; [16],76 to 97%
same,inhibition at 50 µM,[3]; [17],82 to 95%
same,inhibition at 50 µM,[3]; [18],82 to 96%
same,activity at 50 µM,[4]; [19],112%
same,activity at 50 µM,[4]; [20],90.7%
same,activity at 10 µM,ΔmvfR biofilm,24.2%
same,activity at 50 µM,[5],2%
same,IC50,[5],1.7 µM
same,solubility at 4 h,[6],2.1e-05 M
same,Response Unit (RU),MvfR protein (MvfRC87); Concentration 1.00E-05 M,30 RU
same,Response Unit (RU),MvfR protein (MvfRC87); Concentration 1.00E-06 M,22.4 RU
same,Response Unit (RU),MvfR protein (MvfRC87); Concentration 1.00E-07 M,8.9 RU
same,Response Unit (RU),MvfR protein (MvfRC87); Concentration 1.00E-08 M,1.7 RU
same,Response Unit (RU),MvfR protein (MvfRC87); Concentration 3.16E-06 M,27.3 RU
same,Response Unit (RU),MvfR protein (MvfRC87); Concentration 3.16E-07 M,15.6 RU
same,Response Unit (RU),MvfR protein (MvfRC87); Concentration 3.16E-08 M,4.1 RU
same,activity at 10 µM,[7]; [21],6.19%
same,activity at 10 µM,[7]; [22],4.51%
same,activity at 10 µM,[7]; [23],7.7%
same,activity at 10 µM,[7]; [24],29.6%
same,activity at 10 µM,[7]; [25],12.9%
same,activity at 10 µM,[7]; [26],9.26%
same,activity at 10 µM,[7]; [27],4.8%
same,activity at 10 µM,[7]; [28],6.7%
same,activity at 10 µM,[7]; [29],10.8%
same,activity at 10 µM,[7]; [30],11.6%
same,activity at 10 µM,[7]; [31],7.58%
same,activity at 10 µM,[7]; [32],6.29%
same,activity at 10 µM,[7]; [33],12.3%
same,activity at 10 µM,[7]; [34],9.09%
same,activity at 10 µM,[7]; [35],10.1%
same,activity at 10 µM,[7]; [36],11.1%
N#Cc1ccc(NC(=O)CC(=O)Nc2ccc(C#N)nc2)cc1 [D77],activity at 50 µM,[1],7%
same,IC50,[1],4.07 µM
same,inhibition at 10 µM,PA14 AT/P cells,≥ 51%
same,activity at 10 µM,[2],29.3%
same,activity at 50 µM,[3]; [8],19%
same,activity at 50 µM,[3]; [9],777%
same,activity at 50 µM,[3]; [10],20%
same,activity at 50 µM,[3]; [11],10%
same,activity at 50 µM,[3]; [12],64%
same,activity at 50 µM,[3]; [13],24%
same,inhibition at 50 µM,[3]; [14],89 to 99%
same,inhibition at 50 µM,[3]; [15],40 to 92%
same,inhibition at 50 µM,[3]; [16],76 to 97%
same,inhibition at 50 µM,[3]; [17],82 to 95%
same,inhibition at 50 µM,[3]; [18],82 to 96%
same,activity at 50 µM,"[4]; read-out: 2-AA, ΔmvfR-pqsABCD strain",104%
same,activity at 50 µM,[4]; [19],94.5%
same,activity at 50 µM,"[4]; read-out: HHQ, ΔmvfR-pqsABCD strain",98%
same,activity at 50 µM,"[4]; read-out: HQNO, ΔmvfR-pqsABCD strain",102%
same,activity at 50 µM,[4]; [20],90.2%
same,activity at 10 µM,ΔmvfR biofilm,23.6%
same,activity at 50 µM,[5],1%
same,IC50,[5],6.4 µM
same,solubility at 4 h,[6],3.9e-05 M
same,Response Unit (RU),MvfR protein (MvfRC87); Concentration 1.00E-05 M,30.9 RU
same,Response Unit (RU),MvfR protein (MvfRC87); Concentration 1.00E-06 M,19.8 RU
same,Response Unit (RU),MvfR protein (MvfRC87); Concentration 1.00E-07 M,5.9 RU
same,Response Unit (RU),MvfR protein (MvfRC87); Concentration 1.00E-08 M,0.7 RU
same,Response Unit (RU),MvfR protein (MvfRC87); Concentration 3.16E-06 M,26.6 RU
same,Response Unit (RU),MvfR protein (MvfRC87); Concentration 3.16E-07 M,11.8 RU
same,Response Unit (RU),MvfR protein (MvfRC87); Concentration 3.16E-08 M,2.2 RU
same,activity at 10 µM,[7]; [21],15%
same,activity at 10 µM,[7]; [22],12.1%
same,activity at 10 µM,[7]; [23],20.6%
same,activity at 10 µM,[7]; [24],25.6%
same,activity at 10 µM,[7]; [25],35.1%
same,activity at 10 µM,[7]; [26],18.8%
same,activity at 10 µM,[7]; [27],8.31%
same,activity at 10 µM,[7]; [28],11.8%
same,activity at 10 µM,[7]; [29],22.6%
same,activity at 10 µM,[7]; [30],26.1%
same,activity at 10 µM,[7]; [31],19%
same,activity at 10 µM,[7]; [32],14.3%
same,activity at 10 µM,[7]; [33],39.2%
same,activity at 10 µM,[7]; [34],18.5%
same,activity at 10 µM,[7]; [35],18.9%
same,activity at 10 µM,[7]; [36],16.9%
